Results published in publication PMC5951806, “Rapid labelling and covalent inhibition of intracellular native proteins using ligand-directed N-acyl-N-alkyl sulfonamide” (Nature Communications, 2018).

Assays:
[1] = molecular target: T1, Monocarboxylate transporter 4 (SLC16A3) (Homo sapiens, UniProt O15427); experiment: TMT LC-MSMS of 11-labelled proteins; format: cell-based
T1 sequence (O15427 1-465): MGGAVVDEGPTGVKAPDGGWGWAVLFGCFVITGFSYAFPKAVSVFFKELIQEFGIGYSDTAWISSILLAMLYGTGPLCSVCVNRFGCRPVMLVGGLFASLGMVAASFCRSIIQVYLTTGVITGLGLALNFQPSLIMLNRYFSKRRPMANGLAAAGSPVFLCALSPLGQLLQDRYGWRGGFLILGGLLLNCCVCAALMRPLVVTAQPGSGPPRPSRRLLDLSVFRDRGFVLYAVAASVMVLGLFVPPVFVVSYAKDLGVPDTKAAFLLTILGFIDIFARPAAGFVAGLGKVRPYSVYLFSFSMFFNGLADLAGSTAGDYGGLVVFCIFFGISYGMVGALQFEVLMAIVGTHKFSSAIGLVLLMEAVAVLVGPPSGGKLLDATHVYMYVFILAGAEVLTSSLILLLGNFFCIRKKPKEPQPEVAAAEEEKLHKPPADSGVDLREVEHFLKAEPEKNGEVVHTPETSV
Source text: (§1) Supplement 41467_2018_4343_MOESM4_ESM.xlsx, sheet "Exp3" | column: Abundance Ratio: (11) / (11 with PU-H71); Abundance Ratio: (11) / (DMSO); Abundances (Grouped): 11; Abundances (Grouped): 11 with PU-H71

Peroxiredoxin-4 (PRDX4) = molecular target: T2, Peroxiredoxin-4 (PRDX4) (Homo sapiens, UniProt Q13162); experiment: TMT LC-MSMS of 11-labelled proteins; format: cell-based
T2 sequence (Q13162 38-271): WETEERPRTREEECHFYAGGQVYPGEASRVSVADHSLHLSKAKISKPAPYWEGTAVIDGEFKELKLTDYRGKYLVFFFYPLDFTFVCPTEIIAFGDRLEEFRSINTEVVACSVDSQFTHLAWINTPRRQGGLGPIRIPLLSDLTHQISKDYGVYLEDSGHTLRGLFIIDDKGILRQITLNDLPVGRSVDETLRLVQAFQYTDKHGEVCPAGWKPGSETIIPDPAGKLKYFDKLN
Source text: as §1

[2] = molecular target: Dolichyl-diphosphooligosaccharide--protein glycosyltransferase subunit 1 (RPN1) (Homo sapiens, UniProt P04843); experiment: TMT LC-MSMS of 11-labelled proteins; format: cell-based
Sequence of Dolichyl-diphosphooligosaccharide--protein glycosyltransferase subunit 1 (RPN1) (P04843 24-607): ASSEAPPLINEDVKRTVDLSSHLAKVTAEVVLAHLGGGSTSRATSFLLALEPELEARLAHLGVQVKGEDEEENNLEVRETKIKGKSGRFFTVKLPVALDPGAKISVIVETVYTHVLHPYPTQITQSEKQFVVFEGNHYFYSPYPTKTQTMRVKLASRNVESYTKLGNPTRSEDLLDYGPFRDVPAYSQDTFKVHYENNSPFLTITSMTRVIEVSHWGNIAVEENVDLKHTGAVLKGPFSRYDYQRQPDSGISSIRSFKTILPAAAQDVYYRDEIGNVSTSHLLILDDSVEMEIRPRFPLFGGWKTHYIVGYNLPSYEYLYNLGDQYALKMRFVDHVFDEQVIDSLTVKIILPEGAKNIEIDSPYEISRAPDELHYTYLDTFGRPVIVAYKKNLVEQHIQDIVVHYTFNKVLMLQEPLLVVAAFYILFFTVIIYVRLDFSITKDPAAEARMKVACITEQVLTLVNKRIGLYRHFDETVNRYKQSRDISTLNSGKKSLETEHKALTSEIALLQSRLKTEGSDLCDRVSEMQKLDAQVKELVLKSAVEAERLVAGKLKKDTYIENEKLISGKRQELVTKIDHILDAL
Sequence of Dolichyl-diphosphooligosaccharide--protein glycosyltransferase subunit 1 (RPN1) (P39656 43-456 partner): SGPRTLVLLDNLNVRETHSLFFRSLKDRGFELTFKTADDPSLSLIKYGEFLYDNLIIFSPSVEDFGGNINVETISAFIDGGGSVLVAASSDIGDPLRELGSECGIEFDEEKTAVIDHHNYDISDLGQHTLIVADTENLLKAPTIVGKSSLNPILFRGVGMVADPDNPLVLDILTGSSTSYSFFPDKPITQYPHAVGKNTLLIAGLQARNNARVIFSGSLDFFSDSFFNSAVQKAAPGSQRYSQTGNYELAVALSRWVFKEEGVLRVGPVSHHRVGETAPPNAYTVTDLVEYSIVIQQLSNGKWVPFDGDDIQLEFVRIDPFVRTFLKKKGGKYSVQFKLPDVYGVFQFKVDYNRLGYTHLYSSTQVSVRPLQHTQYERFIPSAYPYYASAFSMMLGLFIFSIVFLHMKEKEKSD
Sequence of Dolichyl-diphosphooligosaccharide--protein glycosyltransferase subunit 1 (RPN1) (P04844 23-631 partner): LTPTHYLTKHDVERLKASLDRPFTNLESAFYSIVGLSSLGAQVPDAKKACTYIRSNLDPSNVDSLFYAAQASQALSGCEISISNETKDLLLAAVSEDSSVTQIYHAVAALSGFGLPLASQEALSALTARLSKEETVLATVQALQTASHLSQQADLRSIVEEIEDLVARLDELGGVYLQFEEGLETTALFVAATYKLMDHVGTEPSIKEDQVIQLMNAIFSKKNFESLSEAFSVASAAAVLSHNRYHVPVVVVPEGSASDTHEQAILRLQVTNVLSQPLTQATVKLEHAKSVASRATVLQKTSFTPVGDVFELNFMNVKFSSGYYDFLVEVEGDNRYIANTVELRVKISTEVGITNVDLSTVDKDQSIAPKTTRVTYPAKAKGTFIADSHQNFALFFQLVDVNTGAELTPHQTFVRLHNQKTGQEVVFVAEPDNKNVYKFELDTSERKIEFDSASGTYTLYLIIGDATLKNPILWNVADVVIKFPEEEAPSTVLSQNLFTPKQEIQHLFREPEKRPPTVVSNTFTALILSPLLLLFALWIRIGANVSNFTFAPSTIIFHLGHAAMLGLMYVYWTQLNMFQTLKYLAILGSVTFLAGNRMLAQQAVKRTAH
Sequence of Dolichyl-diphosphooligosaccharide--protein glycosyltransferase subunit 1 (RPN1) (P61803 whole entry partner): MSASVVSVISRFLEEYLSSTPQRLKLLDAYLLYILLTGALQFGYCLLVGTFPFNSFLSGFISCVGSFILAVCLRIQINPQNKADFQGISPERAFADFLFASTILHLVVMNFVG
Sequence of Dolichyl-diphosphooligosaccharide--protein glycosyltransferase subunit 1 (RPN1) (P61165 whole entry partner): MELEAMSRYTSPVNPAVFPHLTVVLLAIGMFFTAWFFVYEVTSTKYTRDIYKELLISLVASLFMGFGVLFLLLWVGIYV
Sequence of Dolichyl-diphosphooligosaccharide--protein glycosyltransferase subunit 1 (RPN1) (P0C6T2 whole entry partner): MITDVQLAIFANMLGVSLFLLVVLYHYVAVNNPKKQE
Source text: as §1

proteins of SKBR3 cells = experiment: Identification of 11-labelled proteins in live cells (TMT quantitative LC-MSMS), all proteins; format: cell-based, human; settings: 0.5 µM, 3 h, three ligand-specific targets and three off-targets
Source text: The labelled proteins were enriched by immunoprecipitation with an anti-fluorescein antibody and tryptically digested in gel. Digested peptides were modified with Light- (L-), Medium- (M-), or Heavy- (H-) TMT reagent for samples treated with 11, 11 with PU-H71 (as competitive condition), or DMSO (vehicle), respectively, and mixed in a 1:1:1 ratio for LC-MSMS analysis. We performed three experimental replicates, in which proteins detected and quantified at least twice were selected as identified proteins. According to the related approach of Cravatt et al[44], the proteins having L/H (11/DMSO) ratios >5 were defined as 11-labelled proteins. […] On the basis of these criteria, we identified 6 proteins that react with 11, including three ligand-specific targets (Hsp90α (HSP90AA1), Hsp90β (HSP90AB1), and Grp94 (HSP90B1)) and three off-targets (Trifunctional enzyme subunit α (HADHA), Tubulin-α (TUBA1B), and ADP/ATP translocase 3 (SLC25A6)) (Fig. 5d, e and Supplementary Data 1). […] Grp94, a HSP90 isomer, was previously reported to be a PU-H71 specific target. TRAP-1, another Hsp90 isomer that can bind PU-H71, on the other hand, was not identified as 11-target by our criteria.
SKBR3 human breast cancer cells (2.0 × 10^6 cells) were seeded on a 10 cm dish and cultured for 3 days in McCoy’s 5A in a 5% CO2 humidified chamber at 37 °C. […]

CC(=O)Oc1ccc2c(c1)Oc1cc(OC(C)=O)ccc1C21OC(=O)c2cc(C(=O)NCCOCCOCCNC(=O)CCCC(=O)N(CC#N)S(=O)(=O)c3ccc(C(=O)NCCCn4c(Sc5cc6c(cc5I)OCO6)nc5c(N)ncnc54)cc3)ccc21 [compound 11]
Abundance Ratio: (11) / (11 with PU-H71) ([1]; Exp3): 0.921
Abundance Ratio: (11) / (DMSO) ([1]; Exp3): 12.228
Abundances (Grouped): 11 ([1]; Exp3): 353.4
Abundances (Grouped): 11 with PU-H71 ([1]; Exp3, with PU-H71): 383.7
Abundance Ratio: (11) / (11 with PU-H71) (Peroxiredoxin-4 (PRDX4); Exp3): 0.973
Abundance Ratio: (11) / (DMSO) (Peroxiredoxin-4 (PRDX4); Exp3): 2.612
Abundances (Grouped): 11 (Peroxiredoxin-4 (PRDX4); Exp3): 25.6
Abundances (Grouped): 11 with PU-H71 (Peroxiredoxin-4 (PRDX4); Exp3, with PU-H71): 26.3
Abundance Ratio: (11) / (11 with PU-H71) ([2]; Exp3): 0.849
Abundance Ratio: (11) / (DMSO) ([2]; Exp3): 2.221
Abundances (Grouped): 11 ([2]; Exp3): 38.2
Abundances (Grouped): 11 with PU-H71 ([2]; Exp3, with PU-H71): 45
number of proteins that react with 11 (L/H ratios >5) (proteins of SKBR3 cells): 6
